# Results reported in US6465441B2, “Screening method for modulation of human mast cell activation” (Duska Scientific Co., priority 1997, dated 2002).
# Tests used:
# [1] = tested on: human lung mast cells (HLMC); test: Histamine release assay, anti-IgE-induced histamine release from purified human lung mast cells; assay type: cell-based
# Experimental: (§1) Lung fragments were washed with Tyrode's buffer containing (g/l): NaCl, 8.0; KCl, 0.2; NaH2PO4, 0.05; and glucose, 1.0. The buffer was titrated to pH 7.2 by the addition of NaHCO3. Mast cell isolation and elutriation were performed in a buffer designated “TGMD”, prepared from Tyrode's buffer to which the following were added (g/l): gelatin (1.0), magnesium (0.25; 1 mM), and DNase (0.01). The buffer designated “PAGCM” was a Pipes-albumin (0.003%) buffer containing (g/l): glucose (1.0), CaCl2.2H2O, 0.14 (1 mM); and MgCl2.6H2O, 0.2 (1 mM).
# (§2) Mast cells were dispersed from human lung by methods previously reported (Schulman et al., J. Immunol. 29:2662-2667 (1982); Schulman et al., J. Immunol. 131:1936-1941 (1983)). Briefly, lung specimens obtained at thoracotomy for bronchogenic carcinoma were finely minced and extensively washed in divalent cation-free Tyrode's buffer. Fragments were briefly incubated in a mixture of pronase (2 mg/ml) and chymopapain (0.5 mg/ml). Freed cells were harvested through Nytex nylon cloth (150 microns pore size). Residual fragments were further exposed to a mixture of collagenase (1 mg/ml) and elastase (10 units/ml). All incubations and washes were performed at 37° C.; recovered cells were immediately washed three times in large volumes of TGMD. Mast cell purities in these human lung cell suspensions ranged from 1-8% as determined by alcian blue staining (Gilbert et al., Blood 46:279-285 (1975)). Lung mast cells were further purified, by counter-current elutriation, using previously reported methods (Schulman et al., J. Immunol. 131:1936-1941 (1983)). Mast cells were purified (80->98%) by flotation of enriched elutriation fractions through a discontinuous Percoll gradient (Ishizaka et al., J. Immunol. 130:2357-2362 (1983)). Further mast cell purification was accomplished by immunomagnetic negative selection against CD2, CD3, CD4, CD8, CD14, CD16, CD21 and HLADR to ensure against contamination by T cells, B calls, NK cells, monocytes, and dendritic cells prior to mast cell stimulation using previously described methods (Jaffe et al., Am. J. Respir. Cell. Mol. Biol. 13:665-675 (1995); Jaffe et al., Am. J. Respir. Cell. Mol. Biol. 15:473-481 (1996)).
# The concentrations of anti-IgE produce 30-70% of maximal release. Twenty minutes following activation, cells were rapidly pelleted and supernatants removed for histamine analysis. Histamine release was expressed as the net histamine released divided by the total histamine content×100%. The total cellular histamine content was determined following cell lysis with 2% perchloric acid. Spontaneous histamine release was always <2% of cellular histamine and generally <1%. Histamine measurements were performed using the automated spectrofluorometric method of Technicon (Tarrytown, N.Y.). Variations between replicates were consistently <5%. All assays were run in duplicates.
# [2] = target: human P2Y1 receptor (Homo sapiens, UniProt P47900); conditions: cited from earlier work
# Chain of human P2Y1 receptor (P47900 whole entry): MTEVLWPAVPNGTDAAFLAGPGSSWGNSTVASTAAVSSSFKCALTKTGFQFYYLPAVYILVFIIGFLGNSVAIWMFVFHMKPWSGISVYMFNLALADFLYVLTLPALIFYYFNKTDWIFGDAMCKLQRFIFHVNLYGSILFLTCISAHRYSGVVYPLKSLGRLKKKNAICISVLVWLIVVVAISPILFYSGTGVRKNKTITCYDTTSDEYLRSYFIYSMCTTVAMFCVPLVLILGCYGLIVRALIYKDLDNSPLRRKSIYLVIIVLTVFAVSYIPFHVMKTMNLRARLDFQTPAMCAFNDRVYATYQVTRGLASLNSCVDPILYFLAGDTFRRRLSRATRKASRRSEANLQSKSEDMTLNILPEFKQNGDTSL
# [3] = tested on: human lung mast cells (HLMC); test: Direct induction of histamine release from HLMC without anti-IgE; assay type: cell-based; conditions: for direct induction of histamine release: no anti-IgE
# Experimental: as §1
# as §2, with “Further mast cell purification was accomplished by immunomagnetic negative selection against CD2, CD3, CD4, CD8, CD14, CD16, CD21 and HLADR to ensure against contamination by T cells, B calls, NK cells, monocytes, and dendritic cells prior to mast cell stimulation using previously described methods (Jaffe et al., Am. J. Respir. Cell. Mol. Biol. 13:665-675 (1995); Jaffe et al., Am. J. Respir. Cell. Mol. Biol. 15:473-481 (1996)).” left out
# The concentrations of anti-IgE produce 30-70% of maximal release. […] Histamine release was expressed as the net histamine released divided by the total histamine content×100%. The total cellular histamine content was determined following cell lysis with 2% perchloric acid. […]
# [4] = tested on: HLMC; test: Functional ectoATPase assay of HLMC (HPLC detection of purine compounds); assay type: in vitro ADME, human; conditions: 10^−4M ATP, anti-IgE activated HLMC, 15 + 20 min incubation, n=3
# Experimental: The supernatants were separated from the cells by centrifugation at 14,000-×g for 5 minutes and kept at −20° C. until analyzed by HPLC. The method of Stocci et al., Anal. Biochem. 167:181-90 (1987) was used for the detection of the purine compounds. The HPLC system consisted of Waters 600E controller, Waters Novapak 4 μm 3.9×150 mm C18 column, and a 990 photodiode array detector. The solvent consisted of 0.1 mM KH2PO4, 8 mM tetrabutylammonium hydrogen sulfate (TAHS) pH 6.0 (buffer A), and 0.1 mM KH2PO4, 8 mM TAHS pH 6.0 with 30% (v/v) methanol (buffer B). The flow rate was 1 ml/min. with the following gradient program: 100% A to 2.5 min., linear gradient to 20% B at 5 min, to 40% B at 10 min., to 100% at 13 min., then 100% B to 30 min. 100 μl of supernatant (neat) was injected and the separation monitored at 254 nm over the 30 minute run time. The ATP peak areas were calculated and compared among the conditions. […] The data are the result of three experiments.
# [5] = tested on: rat peritoneal mast cells; conditions: cited from earlier work
# [6] = Example 3, control 9.9±3.1%, n=10
# [7] = Example 4, 10^−4M (equimolar), control 14.9±3.9%, six experiments, p<0.05
# [8] = Example 5, 10^−4M, control 10.3±3.0%, n=6
# [9] = Example 5, 10^−5M, control 10.3±3.0%, n=6
# [10] = Example 3, control 9.9±3.1%, ten experiments
molecule,measurement,setting,value
"CSc1nc(N)c2ncn([C@@H]3O[C@H](COP(=O)(O)OP(=O)(O)OP(=O)(O)O)[C@@H](O)[C@H]3O)c2n1 [2-mSATP, 2methylthio-ATP]",anti-IgE-induced histamine release,[1]; [6],14.3±3.9%
"Nc1ncnc2c1ncn2[C@@H]1O[C@H](COP(=O)(O)O)[C@@H](O)[C@H]1OP(=O)(O)O [A2P5P, adenosine-2′-phosphate-5′-phosphate]",agonist activity at the human P2Y1 receptor,[2],Partial agonists
"Nc1ncnc2c1ncn2[C@@H]1O[C@H](COP(=O)(O)O)[C@@H](OP(=O)(O)O)[C@H]1O [A3P5P, adenosine-3′-phosphate-5′-phosphate]",agonist activity at the human P2Y1 receptor,[2],devoid of agonist activity
"Nc1ncnc2c1ncn2[C@@H]1O[C@H](COP(=O)(O)OS(=O)(=O)O)[C@@H](OP(=O)(O)O)[C@H]1O [A3P5PS, adenosine-3′-phosphate-5′-phosphosulfate]",agonist activity at the human P2Y1 receptor,[2],devoid of agonist activity
"Nc1ncnc2c1ncn2[C@@H]1O[C@H](COP(=O)(O)OP(=O)(O)OP(=O)(O)O)[C@@H](O)[C@H]1O [ATP, adenosine 5′-triphosphate]",anti-IgE-induced histamine release,"[1]; 10^−3M, n=9, control 10.1+3.4%, not statistically significant (p>0.05)",14.0+2.4%
same,effect on anti-IgE-induced histamine release,"[1]; 10^−4M, 9 of 9 experiments, control 10.1+3.4%, p<0.05",enhanced histamine release
same,anti-IgE-induced histamine release,"[1]; 10^−4M, high responders, control 24.2±4.2%, n=7",32.9±4.5%
same,percent enhancement of anti-IgE-induced histamine release,"[1]; 10^−4M, high responders, n=7",35%
same,anti-IgE-induced histamine release,"[1]; 10^−4M, low responders (<3%), control 1.8±0.4%, n=6",13.5±2.7%
same,percent enhancement of anti-IgE-induced histamine release,"[1]; 10^−4M, low responders, n=6",750%
same,enhancement of anti-IgE-induced histamine release (absolute),"[1]; 10^−4M, lowest and highest anti-IgE responsive preparations",8-10%
same,effect on anti-IgE-induced histamine release,"[1]; 10^−5M, 9 of 9 experiments, control 10.1+3.4%, p<0.05",enhanced histamine release
same,effect on anti-IgE-induced histamine release,"[1]; 10^−6M, six preparations",no effects
same,anti-IgE-induced histamine release,"[1]; ATP 10^−4M, 20 anti-IgE-responsive preparations, control 10.9+2.7%, p<0.01",19.2+2.9%
same,anti-IgE-induced histamine release,[1]; [6],17.7±4.1%
same,anti-IgE-induced histamine release,[1]; [7],23.0±4.7%
same,anti-IgE-induced histamine release,[1]; [8],significantly enhanced
same,anti-IgE-induced histamine release,[1]; [9],significantly enhanced
same,anti-IgE-induced histamine release,"[1]; Example 9, ATP 10^4−M, control 11.2±5.3%, four experiments",15.7±7.1%
same,effect in preparations that failed to respond to anti-IgE alone,"[1]; preincubation 10^−6-10^−3M, 3/23 preparations",without effect
same,direct induction of histamine release,"[3]; ATP 10^−7M-10^−3M, n=23",did not directly induce histamine release
same,histamine release on ATP challenge,"[3]; Ca^2+-free and Mg^2+-free media, results not shown",failed to provoke histamine release
same,area under the ATP peak vs control (ATP alone without HLMC),[4],no noticeable decrease
same,concentration of maximum mediator secretion,[5]; depressed by Ca^2+ and Mg^2+,2 µM
same,concentration that inhibits mediator release,[5]; in the presence of millimolar Ca^2+,above 3 μM
"Cc1nc(N=Nc2ccc(S(=O)(=O)O)cc2S(=O)(=O)O)c(COP(=O)(O)O)c(C=O)c1O [PPADS, pyridzalphosphate-6-azophenyl-2′,4′-disulfonic acid]",anti-IgE-induced histamine release with ATP after preincubation with antagonist,"[1]; Example 9, ATP alone 15.7±7.1%, no significant modulation",16.1±5.9%
Nc1ncnc2c1ncn2[C@@H]1O[C@H](CO)[C@@H](O)[C@H]1O [adenosine],anti-IgE-induced histamine release,"[1]; Example 5, 10^−3 M, control 10.3±3.0%, n=6, p<0.05",5.3±1.9%
same,anti-IgE-induced histamine release,[1]; [8],11.2±4.7%
same,anti-IgE-induced histamine release,[1]; [9],13.4±5.6%
same,direct induction of histamine release,[3]; adenosine alone,did not directly induce histamine release
"Nc1ncnc2c1ncn2[C@@H]1O[C@H](COP(=O)(O)CP(=O)(O)OP(=O)(O)O)[C@@H](O)[C@H]1O [α,βmATP, α,βmethylene-ATP]",effect on anti-IgE-induced histamine release,[1]; [10],enhanced
same,induction of mediator release,[5],inactive
"Nc1ncnc2c1ncn2[C@@H]1O[C@H](COP(=O)(O)OP(=O)(O)CP(=O)(O)O)[C@@H](O)[C@H]1O [β,γmATP, β,γmethylene-ATP]",effect on anti-IgE-induced histamine release,[1]; [10],enhanced
same,induction of mediator release,[5],inactive
adenosine-2′-phosphate-5′-phosphoribose,agonist activity at the human P2Y1 receptor,[2],Partial agonists
uracil triphosphate [UTP],anti-IgE-induced histamine release,[1]; [7],19.2±5.0%
same,achieving mediator release in comparison with ATP,[5]; 10^−4M,almost inactive
